What is called IC50 is the concentration at which inhibition is half-maximal.

The structures appear in SMILES notation.

The assay is described as follows: Membrane potential dye assay: HEK-293 cells overexpressing the channel of interest were seeded in a 96-well plate at a density of 30000 cells/well and incubated at 37° C./5% CO2 for 48 hr. The assay was carried out using the Red Membrane Potential Dye (Molecular Devices) following the manufacturer's instructions. Briefly, the cells were incubated with 1× red membrane potential dye for 1.5 hour. The cells were then treated with various concentrations of the test compounds for 15-20 min followed by depolarization with 10-30 μM Veratridine. The fluorescence was read following excitation at 510-545 nm and emission at 565-625 nm in FLIPR. The “max-min” fluorescence values were used to calculate the % inhibition. Conditions: HEK293.
In the case of `Cn1nccc1-c1cc(C(F)(F)F)ccc1[C@H]1CCOc2cc(S(=O)(=O)Nc3ccncn3)ccc21`, the IC50 is more than 10 µM.
Regarding `O=S(=O)(Nc1ncccn1)c1ccc2c(c1)OCC[C@@H]2c1ccc(C(F)(F)F)cc1-n1ccnn1`, the half-maximal inhibitory concentration (IC50) was more than 10 µM.
Next, `CC(C)Oc1ccc(-c2cc(C(F)(F)F)ccc2[C@H]2CCOc3cc(S(=O)(=O)Nc4ncc(F)cn4)ccc32)cn1`: more than 10 µM.
Take `O=S(=O)(Nc1ncc(F)cn1)c1ccc2c(c1)OCC[C@@H]2c1ccc(C(F)(F)F)cc1-c1ccc(F)cc1`: the IC50 was more than 10 µM.
For the compound `O=C1CCCN1c1cc(C(F)(F)F)ccc1[C@@H]1CCOc2cc(S(=O)(=O)Nc3ncc(F)cn3)ccc21`, the 50% inhibitory concentration (IC50) was more than 10 µM.
With `O=S(=O)(Nc1ncc(F)cn1)c1ccc2c(c1)OCC[C@@H]2c1ccc(C(F)(F)F)cc1CCC(F)F` (racemic), the 50% inhibitory concentration (IC50) is more than 10 µM.
Next, `O=S(=O)(Nc1ncc(F)cn1)c1ccc2c(c1)OCC[C@@H]2c1ccc(C(F)(F)F)cc1OC1COC1` (racemic): more than 10 µM; `O=C1CCCN1c1cc(C(F)(F)F)ccc1[C@H]1CCOc2cc(S(=O)(=O)Nc3cccnn3)ccc21` (racemic): more than 10 µM.
Next, `CS(=O)(=O)CCc1cc(C(F)(F)F)ccc1[C@H]1CCOc2cc(S(=O)(=O)Nc3cccc(F)n3)ccc21`: more than 10 µM.
In the case of `O=C(O)c1ccc(-c2cc(C(F)(F)F)ccc2[C@H]2CCOc3cc(S(=O)(=O)Nc4ncccn4)ccc32)cc1`, the IC50 is more than 10 µM.
In the case of `O=S(=O)(Nc1cccnn1)c1ccc2c(c1)OCC[C@@H]2c1ccc(C(F)(F)F)cc1-n1ccnn1` it was more than 10 µM; in that of `O=C1CCCN1c1cc(C(F)(F)F)ccc1[C@H]1CCOc2cc(S(=O)(=O)Nc3ccncn3)ccc21` (racemic), more than 10 µM; in that of `O=C1OCCN1c1cc(C(F)(F)F)ccc1[C@H]1CCOc2cc(S(=O)(=O)Nc3ncc(F)cn3)ccc21` (racemic), more than 10 µM.
For the compound `O=S(=O)(Nc1ncccn1)c1ccc2c(c1)OCC[C@@H]2c1ccc(C(F)(F)F)cc1Cl` (racemic), the half-inhibitory concentration (IC50) is more than 10 µM.
In the case of `COCCCCc1cc(C(F)(F)F)ccc1[C@H]1CCOc2cc(S(=O)(=O)Nc3ncc(F)cn3)ccc21` (racemic) it was more than 10 µM; in that of `O=S(=O)(Nc1ncc(F)cn1)c1ccc2c(c1)OCC[C@@H]2c1ccc(C(F)(F)F)cc1Cl` (racemic), more than 10 µM.
`O=C1COCCN1c1cc(C(F)(F)F)ccc1[C@@H]1CCOc2cc(S(=O)(=O)Nc3ncccn3)ccc21`: the concentration for half-maximal inhibition (IC50) is more than 10 µM.
In the case of `O=S(=O)(Nc1cccc(F)n1)c1ccc2c(c1)OCC[C@H]2c1ccc(C(F)(F)F)cc1-n1ccnn1` it was more than 10 µM.
As to `O=S(=O)(Nc1ccncn1)c1ccc2c(c1)OCC[C@@H]2c1ccc(C(F)(F)F)cc1CCF` (racemic), the half-maximal inhibitory concentration (IC50) is more than 10 µM.
In the case of `Cc1nc(-c2cc(C(F)(F)F)ccc2[C@@H]2CCOc3cc(S(=O)(=O)Nc4ccncn4)ccc32)cs1` it was more than 10 µM.
As for `CS(=O)(=O)CCc1cc(C(F)(F)F)ccc1[C@@H]1CCOc2cc(S(=O)(=O)Nc3ncccn3)ccc21`, the IC50 is more than 10 µM.
Regarding `O=S(=O)(Nc1ccncn1)c1ccc2c(c1)OCC[C@@H]2c1ccc(C(F)(F)F)cc1-n1ccnn1`, the half-inhibitory concentration (IC50) was more than 10 µM.
`CS(=O)(=O)CCc1cc(C(F)(F)F)ccc1[C@H]1CCOc2cc(S(=O)(=O)Nc3ccncn3)ccc21`: the IC50 is more than 10 µM.
In the case of `CS(=O)(=O)CCc1cc(C(F)(F)F)ccc1[C@H]1CCOc2cc(S(=O)(=O)Nc3ncc(F)cn3)ccc21` it was more than 10 µM.
In the case of `Cc1nc(-c2cc(C(F)(F)F)ccc2[C@@H]2CCOc3cc(S(=O)(=O)Nc4ncccn4)ccc32)cs1` it was more than 10 µM.
Turning to `O=S(=O)(Nc1ncccn1)c1ccc2c(c1)OCC[C@H]2c1ccc(C(F)(F)F)cc1OC1COC1`, the IC50 is more than 10 µM.
For `Cc1nc(-c2cc(C(F)(F)F)ccc2[C@H]2CCOc3cc(S(=O)(=O)Nc4cccnn4)ccc32)cs1`, the IC50 is more than 10 µM.
In the case of `O=S(=O)(Nc1ccncn1)c1ccc2c(c1)OCC[C@@H]2c1ccc(C(F)(F)F)cc1Cl` (racemic) it was more than 10 µM.
In the case of `O=S(=O)(Nc1ncccn1)c1ccc2c(c1)OCC[C@H]2c1ccc(C(F)(F)F)cc1OC1CCOCC1` it was more than 10 µM; in that of `COCCOc1cc(C(F)(F)F)ccc1[C@H]1CCOc2cc(S(=O)(=O)Nc3ncc(F)cn3)ccc21` (racemic), more than 10 µM; in that of `O=S(=O)(Nc1cccc(F)n1)c1ccc2c(c1)OCC[C@@H]2c1ccc(C(F)(F)F)cc1CCF` (racemic), more than 10 µM.
Next, `Cn1nccc1-c1cc(Cl)ccc1[C@@H]1CCOc2cc(S(=O)(=O)Nc3cccc(F)n3)ccc21`: more than 10 µM.
As to `O=S(=O)(Nc1cccnn1)c1ccc2c(c1)OCC[C@H]2c1ccc(C(F)(F)F)cc1-c1ccc(F)cn1`, the half-inhibitory concentration (IC50) is more than 10 µM.
In the case of `O=S(=O)(Nc1ncc(F)cn1)c1ccc2c(c1)OCC[C@H]2c1ccc(C(F)(F)F)cc1-c1ccc(F)nc1` it was more than 10 µM; in that of `O=S(=O)(Nc1cccnn1)c1ccc2c(c1)OCC[C@@H]2c1ccc(C(F)(F)F)cc1Cl` (racemic), more than 10 µM.
In the case of `Cn1nccc1-c1cc(C(F)(F)F)ccc1[C@H]1CCOc2cc(S(=O)(=O)Nc3ncccc3F)ccc21` it was more than 10 µM; in that of `O=S1(=O)CCN(c2cc(C(F)(F)F)ccc2[C@H]2CCOc3cc(S(=O)(=O)Nc4ccncn4)ccc32)CC1` (racemic), more than 10 µM.
As for `Cn1nccc1-c1cc(C(F)(F)F)ccc1[C@@H]1CCOc2cc(S(=O)(=O)Nc3cccnc3F)ccc21`, the IC50 is more than 10 µM.
Next, `O=C1OCCN1c1cc(C(F)(F)F)ccc1[C@H]1CCOc2cc(S(=O)(=O)Nc3ncccn3)ccc21` (racemic): more than 10 µM; `O=S(=O)(Nc1ncc(F)cn1)c1ccc2c(c1)OCC[C@@H]2c1ccc(C(F)(F)F)cc1-c1ccc(F)nc1`: more than 10 µM.
As to `COCCc1cc(C(F)(F)F)ccc1[C@H]1CCOc2cc(S(=O)(=O)Nc3ncccn3)ccc21` (racemic), the IC50 was more than 10 µM.
Next, `CC(C)Oc1cccc(NS(=O)(=O)c2ccc3c(c2)OCC[C@@H]3c2ccc(C(F)(F)F)cc2-c2ccnn2C)n1`: more than 10 µM; `O=S1(=O)CCN(c2cc(C(F)(F)F)ccc2[C@@H]2CCOc3cc(S(=O)(=O)Nc4ncccn4)ccc32)CC1`: more than 10 µM.
As for `O=C1CCCN1c1cc(C(F)(F)F)ccc1[C@H]1CCOc2cc(S(=O)(=O)Nc3ncccn3)ccc21` (racemic), the IC50 is more than 10 µM.
Next, `O=S(=O)(Nc1ccncn1)c1ccc2c(c1)OCC[C@@H]2c1ccc(C(F)(F)F)cc1-c1ccc(F)cc1`: more than 10 µM; `COCCCCc1cc(C(F)(F)F)ccc1[C@@H]1CCOc2cc(S(=O)(=O)Nc3ncccn3)ccc21`: more than 10 µM.
Next, `O=S1(=O)CCN(c2cc(C(F)(F)F)ccc2[C@H]2CCOc3cc(S(=O)(=O)Nc4ncc(F)cn4)ccc32)CC1` (racemic): more than 10 µM; `O=S(=O)(Nc1cccnn1)c1ccc2c(c1)OCC[C@H]2c1ccc(C(F)(F)F)cc1-c1ccc(F)nc1`: more than 10 µM; `COCCc1cc(C(F)(F)F)ccc1[C@H]1CCOc2cc(S(=O)(=O)Nc3cccnn3)ccc21` (racemic): more than 10 µM.
In the case of `O=S(=O)(Nc1ncccn1)c1ccc2c(c1)OCC[C@H]2c1ccc(C(F)(F)F)cc1N1CCOCC1` it was more than 10 µM; in that of `CCCc1cc(C(F)(F)F)ccc1[C@H]1CCOc2cc(S(=O)(=O)Nc3ncc(F)cn3)ccc21`, more than 10 µM.

(Values after ChEMBL document CHEMBL5726766, “Sulfonamide compounds as voltage-gated sodium channel modulators” (2019).)
